Test [1] concerns Japanese mustard spinach (Haru no Senbatsu). The test is described as follows: Experimental Example 5: foliar application, microscopic observation of root hair. Type of test: in vivo. Details: key: those with a significant root hair increase observed were evaluated as AA; those with a root hair increase observed were evaluated as BB; those with no root hair increase observed were evaluated as CC; those with an overall or partial root hair decrease observed were evaluated as DD. As to the method: An observation tank formed with ½ MS agar medium (0.8% agar) was prepared in an acrylic tank. Japanese mustard spinach (Haru no Senbatsu) was seeded near the surface of the observation tank. After seeding, the Japanese mustard spinach was cultivated in an incubator set in a light period (6:00-18:00, temperature 26° C., illuminance 120 μmol/m^2·s) and a dark period (18:00-6:00, temperature 18° C.). Twelve to fourteen days after the seeding, the following liquid (a composition for promoting root hair formation) was applied on the leaf surfaces of the plant body (foliar application) so as not to drip on the agar in each of the following treatments. […] A plurality of experiments were conducted by changing the date of seeding, the date of foliar application, the date of observation, and the type of the composition for promoting root hair formation and the like. Tables 5 to 9 show the composition for promoting root hair formation, the outline of operation and the observation results of root hair.

In test [2] the test system is soybeans (Fukuyutaka). The test is described as follows: Experimental Example 3: seed coating with biosurfactant and/or KVP, number of root nodules. Type of test: in vivo, soybean. The conditions noted are these: Table 3-1. As to the method: A solution of SF, SL, or RL and/or KVP dissolved in water (a composition for promoting root nodule formation) as the following amount in each of the following treatments was prepared. The seeds of soybeans (Fukuyutaka) were coated using the solution in an amount of 800 μL/100 g seed to obtain coated seeds.
A 9 cm poly pot was filled with culture soil and seeded with three coated seeds in each pot.
After seeding, the coated seeds were cultivated in a greenhouse set at 28° C. during the day (14h) and 18° C. at night (10h).
Seven days after the seeding, the soybeans in each pot were thinned to one plant, and each pot was irrigated with 4.3 mL of a mixture of rhizobium materials (rhizobium and azospirillum) mixed with water at a proportion of 10 g/L.
(§1) Twenty-one days after the irrigation, the roots were washed with water so as not to remove root nodules, the culture soil was removed, and then, the root nodules formed on the roots were collected.
(§2) After the seeding, each pot was fertilized with ½ Hoagland solution (50 mL) once a week. In addition, experiments were conducted on eight pots (eight plants) in each treatment.
A plurality of experiments were conducted by changing the type of the composition for promoting root nodule formation and the like. Tables 3-1 and 3-2 show the amounts of SF, SL, or RL and/or KVP in the composition for promoting root nodule formation and the investigation result of the number of root nodules. Note that the number of root nodules is indicated by a relative value with Tl taken as 100, with a numerical value in parentheses indicating the average number of root nodules actually measured (pieces/plant).

In test [3] the test system is Japanese mustard spinach (Haru no Senbatsu). Kind of test: Experimental Example 6: SF in agar medium, microscopic observation of root hair. Format: in vivo. Details: key: those with a significant root hair increase observed were evaluated as AA; those with a root hair increase observed were evaluated as BB; those with no root hair increase observed were evaluated as CC; those with an overall or partial root hair decrease observed were evaluated as DD. To be noted: Table 10, eight days after seeding. As to the method: An observation tank (a composition for promoting root hair formation) formed by adding 1% SF aqueous solution to ½ MS agar medium (0.8% agar) so as to obtain the following dilution factor was prepared in an acrylic tank. Japanese mustard spinach (Haru no Senbatsu) was seeded near the surface of the observation tank.
After seeding, the Japanese mustard spinach was cultivated in an incubator set in a light period (6:00-18:00, temperature 26° C., illuminance 120 μmol/m^2·s) and a dark period (18:00-6:00, temperature 18° C.).
Eight days after the seeding, the amount of root hair at a point of 1 cm from the tip of the roots was observed under a microscope (microscopic observation). In the T1 (Control), ½ MS agar medium without mixing 1% SF aqueous solution in the medium was used as the observation tank.
As a result of the observation, compared with the T1, those with a significant root hair increase observed were evaluated as AA, those with a root hair increase observed were evaluated as BB, those with no root hair increase observed were evaluated as CC, and those with an overall or partial root hair decrease observed were evaluated as DD.
A plurality of experiments were conducted by changing the date of seeding, the date of observation, and the type of the composition for promoting root hair formation and the like. […]

Test [4] relates to soybeans (Fukuyutaka). The test is described as follows: Experimental Example 2: soil irrigation with composition comprising rhizobium materials, number of root nodules. Format: in vivo, soybean. As for the experimental part:
For each of the following treatment, to a mixture of rhizobium materials (rhizobium and azospirillum) mixed with water at a proportion of 10 g/L, SF, SL, or RL was added in the following amount to prepare a solution comprising the rhizobium materials and SF, SL, or RL (a composition for promoting root nodule formation).
A 9 cm poly pot was filled with culture soil and seeded with three seeds of soybeans (Fukuyutaka) in each pot.
After seeding, the seeds were cultivated in a greenhouse set at 28° C. during the day (14h) and 18° C. at night (10h).
Seven days after the seeding, the soybeans in each pot were thinned to one plant, and each pot was irrigated with 4.3 ml of the composition for promoting root nodule formation (in the treatment T1, a mixture of rhizobium materials (rhizobium and azospirillum) mixed with water at a proportion of 10 g/L).
as §1, §2
A plurality of experiments were conducted by changing the type of the composition for promoting root nodule formation and the like. Tables 2-1 and 2-2 show the date of seeding, the date of irrigating, the date of investigating the number of root nodules, the composition for promoting root nodule formation, and the investigation result of the number of root nodules. Note that the number of root nodules is indicated by a relative value with T1 taken as 100, with a numerical value in parentheses indicating the average number of root nodules actually measured (pieces/plant).

Where [5] appears, read: seed coating SF 0.5 g/t seed (diluted 16000 times).
[6] abbreviates: seed coating SF 5 g/t seed (diluted 1600 times).
Setting [7] is: Table 2-1, irrigation 4.3 ml, diluted 100 times.
Where [8] appears, read: Table 2-1, irrigation, diluted 500 times.
Setting [9] is: Table 2-1, irrigation, diluted 1000 times.

Consider surfactin Na [SF], for which the “Observation Result (root hair)” value in test [1] (Table 5, aqueous solution diluted 1000 times, compared with T1) is reported as “BB”; in test [1] (Table 5, aqueous solution diluted 2000 times), “AA”; in test [1] (Table 5, aqueous solution diluted 5000 times), “AA”; in test [3] (agar medium with SF diluted 5000 times), “AA”; in test [3] (agar medium with SF diluted 10000 times), “BB”. For the same substance, the “Number of Root Nodules, average number actually measured” value in the test on soybeans (Fukuyutaka) [2] (setting [5]) is 25.3 pieces/plant; in the test with soybeans (Fukuyutaka) [2] (setting [6]), 26.9 pieces/plant; in the test on soybeans (Fukuyutaka) [4] (setting [7]), 15.9 pieces/plant; in the test with soybeans (Fukuyutaka) [4] (setting [8]), 16.3 pieces/plant; with soybeans (Fukuyutaka) [4] (setting [9]), 16.9 pieces/plant. For the same substance, the “Number of Root Nodules, relative value with T1 taken as 100” value is given as 109 with soybeans (Fukuyutaka) [2] (setting [5]); 116 in the test on soybeans (Fukuyutaka) [2] (setting [6]); 109 in the test on soybeans (Fukuyutaka) [4] (setting [7]); 111 with soybeans (Fukuyutaka) [4] (setting [8]); 115 in the test with soybeans (Fukuyutaka) [4] (setting [9]).
